Here are results for three compounds from paper PMC4323687 (Neurobiology of disease, 2014).

One may read the IC50 as the concentration needed to halve the response being measured. A high value points to a need for much substance. A word on the inhibition: it is the relative decrease from the control value, in per cent. For orientation: half-life means the time in which the quantity being followed falls by half.

One data set relates to primary cortical neurons. As to conditions: 0.5, 5, 10, 20 and 50 μM, 24 hours, MTT.
For data set [1], the system named is mThy1-hAPP751 APPtg mouse model of AD. The experiment in a line: Immunohistochemistry of synaptophysin, MAP2, NeuN and GFAP in APPtg mouse brain. Format: in vivo. As to conditions: for synapse loss (SYN-immunoreactivity) in the frontal cortex / synapse loss (SYN-immunoreactivity) in the hippocampus: vs APPtg mice treated with PBS.
A further data set concerns the target protofibrillar Aβ42 (Homo sapiens, UniProt P05067). The experiment in a line: Conversion of Aβ42 protofibrils into mature fibrils. To be noted: 48 hours, ThT. Format: biochemical.
The subject of data set [2] is mThy1-hAPP751 APPtg mouse model of AD. In words: Aβ42 ELISA in APPtg mouse brain. As to conditions: vs vehicle-treated APPtg mice. Format: in vivo.
In the next data set the test system is Aβ. To be noted: ref Colombo et al., 2009; cited from earlier work.
Another data set deals with monomeric Aβ42 (Homo sapiens, UniProt P05067). The experiment in a line: Fibrillization of monomeric Aβ42. It counts as biochemical.
In data set [3] the test system is mThy1-hAPP751 APPtg mouse model of AD. The experiment in a line: Electron microscopy of neuropil and amyloid in APPtg mouse brain. Format: in vivo. To be noted: same treatments as E16.
Data set [4] concerns the target Aβ42 seeding-mediated fibril growth (Homo sapiens, UniProt P05067). In words: Aβ42 seeding polymerization assay. It counts as biochemical. As to conditions: for fibril growth and number of amyloid fibrils by TEM: 3 hours incubation of seeds and monomers with compound; for inhibition at 10 µM: read-out: inhibition of seeded fibril growth (seeding capacity of short fibrils).

Data set [5] deals with mThy1-hAPP751 APPtg mouse model of AD. In words: Immunoblot of Aβ42 species in brain membrane fraction of APPtg mice. As to conditions: vs vehicle-treated APPtg mice. It counts as in vivo. (In general: Immunoblotting shows a protein as a band on a membrane.)
Another data set concerns Slack (Slo2.2) channels. As to conditions: ref Yang et al., 2006; cited from earlier work.
In data set [6] the test system is mThy1-hAPP751 APPtg mouse model of AD. In words: Aβ immunostaining of plaques in frontal cortex and hippocampus of APPtg mice. It counts as in vivo. As to conditions: same treatments as E16.
Data set [7] can be described thus: Pharmacokinetics and brain distribution after single administration. Format: in vivo, C57/BL6 mice.

Sequence of monomeric Aβ42 (P05067 672-713 limits assumed): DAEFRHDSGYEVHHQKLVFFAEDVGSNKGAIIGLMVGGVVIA
Sequence of Aβ42 seeding-mediated fibril growth (P05067 672-713 limits assumed): as above
Sequence of protofibrillar Aβ42 (P05067 672-713 limits assumed): as above

Take `O=C1c2c(O)ccc(O)c2C(=O)c2c(NCCNCCO)ccc(NCCNCCO)c21` [mitoxantrone]: the “effect of compound alone on cellular viability of neurons” value in the data set on primary cortical neurons is on record as “significant reduction of the cellular viability only at high concentrations”. Moreover, in data set [1], the “synapse loss (SYN-immunoreactivity) in the frontal cortex” value is reported as “significantly reversed” and the “synapse loss (SYN-immunoreactivity) in the hippocampus” value is “significantly reversed”. Also, in data set [1] (vs vehicle-treated APPtg mice), the “MAP2 immunoreactivity (neuronal damage) in the frontal cortex” value is listed as “reversion of the damage”, the “MAP2 immunoreactivity (neuronal damage) in the hippocampus” value is reported as “reversion of the damage” and the “NeuN immunoreactivity in the frontal cortex” value is “increase”. At protofibrillar Aβ42, the “inhibition of protofibril to fibril conversion” value is recorded as above 80%. In [2], the “Aβ42 levels by ELISA, guanidine-HCl brain extractions” value was “significant and dramatic reduction”; the “Aβ42 levels by ELISA, membrane fractions” value is “significant and dramatic reduction”. For the same compound, in the data set with Aβ, the “Aβ oligomerization and fibril formation” value was “can block Aβ oligomerization and fibril formation”. The IC50 against monomeric Aβ42 worked out at 2.5 µM. Besides, in data set [3], the “amyloid fibrils in neuropil by electron microscopy” value is recorded as “only few fibrillar aggregates” and the “status of axons/neurites in neuropil by electron microscopy” value was “axons were comparable to controls”. Moreover, in [4], the midpoint of inhibition, the IC50, lay at 1.7 µM; the “fibril growth and number of amyloid fibrils by TEM” value (from here on “fibril growth and number”) is on record as “significant inhibition of fibril growth”; the inhibition at 10 µM is 80 to 90%. The “levels of Aβ42 monomers and intermediate species (immunoblot, 82E1)” value (“levels … (immunoblot, 82E1)” for short) in data set [5] is listed as “significant reduction”.
In the case of `Oc1c(Cl)cc(Cl)cc1Sc1cc(Cl)cc(Cl)c1O` [bithionol], in data set [1], the “synapse loss (SYN-immunoreactivity) in the frontal cortex” value is reported as “significantly reversed” and the “synapse loss (SYN-immunoreactivity) in the hippocampus” value is reported as “significantly reversed”. For the same compound, in [1] (vs vehicle-treated APPtg mice), the “GFAP immunoreactivity (astroglial reactivity) in the frontal cortex” value is “strong and significant reduction”; the “MAP2 immunoreactivity (neuronal damage) in the frontal cortex” value is listed as “reversion of the damage”; the “MAP2 immunoreactivity (neuronal damage) in the hippocampus” value is listed as “reversion of the damage”; the “NeuN immunoreactivity in the frontal cortex” value is given as “increase”. In addition, in the data set with Slack (Slo2.2) channels, the “activation of Slack channels” value is “robust activator of Slack channels”. Also, in data set [2], the “Aβ42 levels by ELISA, guanidine-HCl brain extractions” value was “significant and dramatic reduction”; the “Aβ42 levels by ELISA, membrane fractions” value was “significant and dramatic reduction”. Further, the “Aβ42-immunoreactivity in the hippocampus (% area of neuropil) vs vehicle APPtg” value in [6] was “significant decrease”. In data set [7] (C57/BL6, mouse, brain, iv, 10 mg/kg), this compound had a half-life of 1.77 h. The same compound had a half-life in [7] (C57/BL6, mouse, plasma, iv, 10 mg/kg) of 7.62 h. The IC50 against monomeric Aβ42 was found to be 5.1 µM. In addition, in [3], the “amyloid fibrils in neuropil by electron microscopy” value is listed as “only few fibrillar aggregates” and the “status of axons/neurites in neuropil by electron microscopy” value was “axons were comparable to controls”. Moreover, in [4], the midpoint of inhibition, the IC50, lay at 5.33 µM; the “fibril growth and number” value is given as “significant inhibition of fibril growth”; the inhibition at 10 µM lay within 60 to 80%. Also, in data set [5], the “levels … (immunoblot, 82E1)” value is “significant reduction”.
For `Oc1c(Cl)cc(Cl)c(Cl)c1Cc1c(O)c(Cl)cc(Cl)c1Cl` [hexachlorophene], in data set [2], the “Aβ42 levels by ELISA, guanidine-HCl brain extractions” value is on record as “did not significantly affect” and the “Aβ42 levels by ELISA, membrane fractions” value was “did not significantly affect”. Further, the Kp in data set [7] (C57/BL6, mouse, in vivo, iv, 10 mg/kg) is 0.5. This compound also showed a brain penetration in data set [7] (single IV administration 10 mg/kg) of 50%. The IC50 against monomeric Aβ42 was 5 µM. Further, in [4], the IC50 was 5.9 µM; the “fibril growth and number” value is given as “significant inhibition of fibril growth”; the inhibition at 10 µM lay within 60 to 80%. Moreover, in data set [5], the “levels … (immunoblot, 82E1)” value is given as “comparable to that observed in the vehicle-treated APPtg mice”.
